Here are results for 10 compounds from patent US11957759B1, “Rapidly accelerated fibrosarcoma (RAF) degrading compounds and associated methods of use” (Arvinas Operations, Inc., priority 2022, dated 2024).

One experiment concerns the target T1, B-RAF V600E (Homo sapiens, UniProt P15056, V600E).
T1 construct: expressed in transfected cells; host or cells: T-Rex 293 cells (Invitrogen #R71007)
Briefly: Target protein degradation, assay A: T-Rex 293 cells, HA-B-RAF_V600E, 96 well format. Type of experiment: cell-based. As to conditions: T-Rex 293 HA-B-RAF_V600E cells, 24 hours, Examples 1-82. The method, then:
A. T-Rex 293 Cells (96 well format)
T-Rex 293 cells were purchased from Invitrogen (#R71007), and stably transfected with a pcDNA4/TO_HA-B-RAF_V600E construct, using 400 ug Zeocin for selection. V600e cells are plated in ulbecco's Modified Eagle Medium (DMEM; Gibco #11965118) containing 10% fetal bovine serum (FBS; Gibco #16000044) and 1 ng/mL doxycycline (Selleckchem #4163) at a density of 5,000 cells/well in 50 μl on poly-D-lysine (PDL) coated, black clear bottom 96-well plates (Corning #354640) and incubated for 24 hours at 37° C. with 5% CO2. The following day 50 ul of tested compound was added at 2× concentration in DMEM with a final concentration ranging from 1 μM to 0.1 nM in 0.1% dimethylsulfoxide (DMSO), and incubated for 24 hours at 37° C. with 5% CO2. At the end of the experimental treatment, the media was flicked off and cells washed once with phosphate-buffered saline (PBS)++(PBS with CaCl and MgCl) and gently replacing with 200 μl PBS++ per well. The PBS++ was removed and 50 uL 4% paraformaldehyde (PFA; EMS #15710) in PBS++ was added, and incubate at room temperature for 15 minutes. Cells were washed once with PBS++ and 50 uL 0.1% Triton X-100 (Fisher #BP151-500) in PBS++ was added. Plate was incubate for 5 minutes at room temperature. Cells were was once with PBS++. Cells were blocked with 100 uL Licor blocking buffer (Licor #927-50000) for 1 hour at room temperature. Next, 50 uL of HA antibody (CST #3724) at 1:1000 in Licor blocking buffer was added, and the plate icubate overnight at 4° C. The plates were parafilmed to prevent evaporation. Plate was washed three times with 200 uL PBS++. Fifty microliters of HCS secondary antibody solution [1:1000 Hoechst (Invitrogen #H3570), 1:1000 phalloidin (Invitrogen #A22287) and 1:5000 Alexa fluor (Invitrogen #A11008)] was added and incubated for 1 hour. Plate was wash three times with 200 uL PBS++, and imaged on a high content reader (ImageXpress Micro XLS, Molecular Devices).
(§1) The concentration of an exemplary compound that leads to half maximal degradation (DC50) as well as the maximum degradation observed (Dmax, conventionally expressed as a percentage of control) is shown below in Table 2.

A further experiment concerns the target T2, B-RAF G466V (Homo sapiens, UniProt P15056, G466V).
T2 construct: expressed in transfected cells; host or cells: T-Rex 293 cells (Invitrogen #R71007)
Briefly: Target protein degradation, assay B: T-Rex 293 cells, HA-B-RAF_G466V, 96 well format. Type of experiment: cell-based. As to conditions: T-Rex 293 HA-B-RAF_G466V cells, 24 hours, Examples 1-82. Here is the method:
B. T-Rex 293 Cells (96 Well Format)
T-Rex 293 cells were purchased from Invitrogen (#R71007), and stably transfected with a pcDNA4/TO_HA-B-RAF_G466V construct, using 400 ug Zeocin for selection. G466V cells are plated in ulbecco's Modified Eagle Medium (DMEM; Gibco #11965118) containing 10% fetal bovine serum (FBS; Gibco #16000044) and 0.75 ng/mL doxycycline (Selleckchem #4163) at a density of 5,000 cells/well in 50 μl on poly-D-lysine (PDL) coated, black clear bottom 96-well plates (Corning #354640) and incubated for 24 hours at 37° C. with 5% CO2. The following day 50 ul of tested compound was added at 2× concentration in DMEM with a final concentration ranging from 30 nM to 3 pM in 0.1% dimethylsulfoxide (DMSO), and incubated for 24 hours at 37° C. with 5% CO2. At the end of the experimental treatment, the media was flicked off and cells washed once with phosphate-buffered saline (PBS)++(PBS with CaCl and MgCl) and gently replacing with 200 μl PBS++ per well. The PBS++ was removed and 50 uL 4% paraformaldehyde (PFA; EMS #15710) in PBS++ was added, and incubate at room temperature for 15 minutes. Cells were washed once with PBS++ and 50 uL 0.1% Triton X-100 (Fisher #BP151-500) in PBS++ was added. Plate was incubate for 5 minutes at room temperature. Cells were was once with PBS++. Cells were blocked with 100 uL Licor blocking buffer (Licor #927-50000) for 1 hour at room temperature. Next, 50 uL of HA antibody (CST #3724) at 1:1000 in Licor blocking buffer was added, and the plate icubate overnight at 4° C. The plates were parafilmed to prevent evaporation. Plate was washed three times with 200 uL PBS++. Fifty microliters of HCS secondary antibody solution [1:1000 Hoechst (Invitrogen #H3570), 1:1000 phalloidin (Invitrogen #A22287) and 1:5000 Alexa fluor (Invitrogen #A11008)] was added and incubated for 1 hour. Plate was wash three times with 200 uL PBS++, and imaged on a high content reader (ImageXpress Micro XLS, Molecular Devices).
as §1

T1 sequence (P15056 whole entry V600E): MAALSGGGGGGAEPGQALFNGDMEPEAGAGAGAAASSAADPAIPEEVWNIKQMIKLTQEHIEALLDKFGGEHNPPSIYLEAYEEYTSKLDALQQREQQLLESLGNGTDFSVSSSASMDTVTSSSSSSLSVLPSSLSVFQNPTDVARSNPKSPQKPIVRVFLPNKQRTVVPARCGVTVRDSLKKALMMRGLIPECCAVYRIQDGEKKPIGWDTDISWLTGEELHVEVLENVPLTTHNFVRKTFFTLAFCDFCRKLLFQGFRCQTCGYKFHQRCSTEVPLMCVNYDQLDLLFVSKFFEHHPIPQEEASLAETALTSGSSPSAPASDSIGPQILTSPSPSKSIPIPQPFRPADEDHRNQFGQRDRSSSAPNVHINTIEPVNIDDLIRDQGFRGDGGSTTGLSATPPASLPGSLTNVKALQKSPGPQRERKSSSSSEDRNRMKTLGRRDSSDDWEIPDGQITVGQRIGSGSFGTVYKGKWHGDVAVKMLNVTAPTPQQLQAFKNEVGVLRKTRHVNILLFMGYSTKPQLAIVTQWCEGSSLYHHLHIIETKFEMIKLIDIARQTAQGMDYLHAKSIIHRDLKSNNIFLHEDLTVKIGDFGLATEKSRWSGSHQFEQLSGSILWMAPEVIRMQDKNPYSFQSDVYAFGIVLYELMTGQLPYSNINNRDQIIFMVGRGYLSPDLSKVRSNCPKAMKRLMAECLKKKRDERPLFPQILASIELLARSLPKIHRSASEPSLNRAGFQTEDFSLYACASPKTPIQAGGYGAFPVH
T2 sequence (P15056 whole entry G466V): as the sequence (P15056 whole entry V600E) above, with G466V, E600V counted along it

In the case of `N#Cc1c(NS(=O)(=O)N2CC[C@@H](F)C2)ccc(F)c1Oc1ccc2ncn(-c3ccc(N4CCN(CC5CCN(c6ccc(C7CCC(=O)NC7=O)cc6F)CC5)CC4)nc3)c(=O)c2c1` (stereo partly drawn) [Example 14, (3R)-N-{2-cyano-3-[(3-{6-[4-({1[4-(2,6-dioxopiperidin-3-yl)-2-fluorophenyl]piperidin-4-yl}methyl)piperazin-1-yl]pyridin-3-yl}-4-oxo-3,4-dihydroquinazolin-6-yl)oxy]-4-fluorophenyl}-3-fluoropyrrolidine-1-sulfonamide], on B-RAF V600E, the 50% degradation concentration (DC50) – broadly, the concentration at which degradation of the target reaches its halfway point – was in the range of 50 to 500 nM and the Dmax (as a rule, the greatest extent of degradation seen) fell in the range of 35 to 70%. The same compound came in with a DC50 on B-RAF G466V of more than 30 nM.

As to `N#Cc1c(NS(=O)(=O)N2CC[C@@H](F)C2)ccc(F)c1Oc1ccc2ncn(-c3ccc(N4CCN(CC5CCN(c6ccc(F)c(C(=O)NC7CCC(=O)NC7=O)c6)CC5)CC4)cc3)c(=O)c2c1` (stereo partly drawn) [Example 15, 5-(4-{[4-(4-{6-[2-cyano-6-fluoro-3-({[(3R)-3-fluoropyrrolidin-1-yl]sulfonyl}amino)phenoxy]-4-oxo-3,4-dihydroquinazolin-3-yl}phenyl)piperazin-1-yl]methyl}piperidin-1-yl)-N-(2,6-dioxopiperidin-3-yl)-2-fluorobenzamide], the DC50 at B-RAF V600E is more than 500 nM; at B-RAF G466V, more than 30 nM.

For the compound `N#Cc1c(NS(=O)(=O)N2CC[C@@H](F)C2)ccc(F)c1Oc1ccc2ncn(-c3cnc(N4CCN(c5ccc6c(c5)C(=O)N(C5CCC(=O)NC5=O)C6=O)CC4)nc3)c(=O)c2c1` (stereo partly drawn) [Example 31, (3R)-N-(2-cyano-3-{[3-(2-{4-[2-(2,6-dioxopiperidin-3-yl)-1,3-dioxo-2,3-dihydro-1H-isoindol-5-yl]piperazin-1-yl}pyrimidin-5-yl)-4-oxo-3,4-dihydroquinazolin-6-yl]oxy}-4-fluorophenyl)-3-fluoropyrrolidine-1-sulfonamide], the DC50 on B-RAF V600E is more than 500 nM; at B-RAF G466V it was more than 30 nM.

Take `N#Cc1c(NS(=O)(=O)N2CC[C@@H](F)C2)ccc(F)c1Oc1ccc2ncn(-c3ccc(N4CCC(c5ccc6c(c5)C(=O)N(C5CCC(=O)NC5=O)C6)CC4)cc3)c(=O)c2c1` (stereo partly drawn) [Example 32, (3R)-N-(2-cyano-3-{[3-(4-{4-[2-(2,6-dioxopiperidin-3-yl)-3-oxo-2,3-dihydro-1H-isoindol-5-yl]piperidin-1-yl}phenyl)-4-oxo-3,4-dihydroquinazolin-6-yl]oxy}-4-fluorophenyl)-3-fluoropyrrolidine-1-sulfonamide]: at B-RAF V600E, the DC50 is 50 to 500 nM and the Dmax was in the range of 35 to 70%. Besides, at B-RAF G466V, the DC50 is more than 30 nM.

Take `N#Cc1c(NS(=O)(=O)N2CC[C@@H](F)C2)ccc(F)c1Oc1ccc2ncn(-c3ccc(N4CCN(C(=O)CC5(O)CCN(c6ccc7c(c6)CN([C@H]6CCC(=O)NC6=O)C7=O)CC5)CC4)nc3)c(=O)c2c1` [Example 65, (3R)-N-(2-cyano-3-{[3-(6-{4-[2-(1-{2-[(3S)-2,6-dioxopiperidin-3-yl]-1-oxo-2,3-dihydro-1H-isoindol-5-yl}-4-hydroxypiperidin-4-yl)acetyl]piperazin-1-yl}pyridin-3-yl)-4-oxo-3,4-dihydroquinazolin-6-yl]oxy}-4-fluorophenyl)-3-fluoropyrrolidine-1-sulfonamide]: the 50% degradation concentration (DC50) at B-RAF V600E is more than 500 nM; on B-RAF G466V it was 10 to 30 nM. The same compound yielded a maximal degradation (Dmax) at B-RAF G466V of 35 to 70%.

With `N#Cc1c(NS(=O)(=O)N2CC[C@@H](F)C2)ccc(F)c1Oc1ccc2ncn(-c3ccc(N4CCN(C(=O)CC5(O)CCN(c6ccc(C7CCC(=O)NC7=O)cc6F)CC5)CC4)cc3)c(=O)c2c1` (stereo partly drawn) [Example 66, (3R)-N-{2-cyano-3-[(3-(4-[4-(2-{1-[4-(2,6-dioxopiperidin-3-yl)-2-fluorophenyl]-4-hydroxypiperidin-4-yl}acetyl)piperazin-1-yl]phenyl}-4-oxo-3,4-dihydroquinazolin-6-yl)oxy]-4-fluorophenyl}-3-fluoropyrrolidine-1-sulfonamide], at B-RAF V600E, the DC50 was 50 to 500 nM and the Dmax was 35 to 70%. In addition, the DC50 at B-RAF G466V was more than 30 nM.

As for `N#Cc1c(NS(=O)(=O)N2CC[C@@H](F)C2)ccc(F)c1Oc1ccc2ncn(-c3ccc(N4CCN(C(=O)CC5(O)CCN(c6ccc(NC7CCC(=O)NC7=O)cc6F)CC5)CC4)cc3)c(=O)c2c1` (stereo partly drawn) [Example 67, (3R)-N-{2-cyano-3-[(3-(4-{4-[2-(1-{4-[(2,6-dioxopiperidin-3-yl)amino]-2-fluorophenyl}-4-hydroxypiperidin-4-yl)acetyl]piperazin-1-yl}phenyl)-4-oxo-3,4-dihydroquinazolin-6-yl]oxy}-4-fluorophenyl)-3-fluoropyrrolidine-1-sulfonamide], on B-RAF V600E, the DC50 was 50 to 500 nM and the Dmax is 35 to 70%. On B-RAF G466V, this compound had a DC50 of more than 30 nM.

`N#Cc1c(NS(=O)(=O)N2CC[C@@H](F)C2)ccc(F)c1Oc1ccc2ncn(-c3cnc(N4CCN(C(=O)CC5(O)CCN(c6ccc7c(c6)CN([C@H]6CCC(=O)NC6=O)C7=O)CC5)CC4)nc3)c(=O)c2c1` [Example 68, (3R)-N-(2-cyano-3-{[3-(2-{4-[2-(1-{2-[(3S)-2,6-dioxopiperidin-3-yl]-1-oxo-2,3-dihydro-1H-isoindol-5-yl}-4-hydroxypiperidin-4-yl)acetyl]piperazin-1-yl}pyrimidin-5-yl)-4-oxo-3,4-dihydroquinazolin-6-yl]oxy}-4-fluorophenyl)-3-fluoropyrrolidine-1-sulfonamide]: the DC50 lay in the range of 50 to 500 nM at B-RAF V600E and 1 to 10 nM at B-RAF G466V. Moreover, the Dmax on B-RAF V600E and at B-RAF G466V was 35 to 70% each time.

At B-RAF V600E, `N#Cc1c(NS(=O)(=O)N2CC[C@@H](F)C2)ccc(F)c1Oc1ccc2ncn(-c3ccc(N4CCN(C(=O)CC5(O)CCN(c6ccc(C7CCC(=O)NC7=O)cc6F)CC5)CC4)nc3)c(=O)c2c1` (stereo partly drawn) [Example 69, (3R)-N-{2-cyano-3-[(3-{6-[4-(2-{1-[4-(2,6-dioxopiperidin-3-yl)-2-fluorophenyl]-4-hydroxypiperidin-4-yl}acetyl)piperazin-1-yl]pyridin-3-yl}-4-oxo-3,4-dihydroquinazolin-6-yl)oxy]-4-fluorophenyl}-3-fluoropyrrolidine-1-sulfonamide] yielded a DC50 of 50 to 500 nM and a Dmax of 35 to 70%. At B-RAF G466V, this compound showed a DC50 of 1 to 10 nM and a maximal degradation (Dmax) of 35 to 70%.

With `N#Cc1c(NS(=O)(=O)N2CC[C@@H](F)C2)ccc(F)c1Oc1ccc2ncn(-c3ccc(N4CCN(C(=O)CC5(O)CCN(c6ccc(NC7CCC(=O)NC7=O)cc6F)CC5)CC4)nc3)c(=O)c2c1` (stereo partly drawn) [Example 70, (3R)-N-(2-cyano-3-{[3-(6-{4-[2-(1-{4-[(2,6-dioxopiperidin-3-yl)amino]-2-fluorophenyl}-4-hydroxypiperidin-4-yl)acetyl]piperazin-1-yl}pyridin-3-yl)-4-oxo-3,4-dihydroquinazolin-6-yl]oxy}-4-fluorophenyl)-3-fluoropyrrolidine-1-sulfonamide], the DC50 at B-RAF V600E fell in the range of 50 to 500 nM; on B-RAF G466V, 1 to 10 nM. The Dmax on B-RAF V600E is 35 to 70%; at B-RAF G466V it was not above 35%.
